Source: ChEMBL document CHEMBL1201862, “PubChem BioAssay data set” (2004)
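Dose response: 5 concentrations. Exposure: 48 h. Format: 96-well plates. Endpoint: linear interpolation; highest concentration if not reached. At the GI50, growth is halved.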 Calls of active or inactive are those of the source. No stated cut-off is given here; in the data, active = GI50 up to about 1.1 µM and inactive = higher.

Assays:
Assay in all cases: NCI tumour cell line growth inhibition, 48 h
HL-60 = tested on: HL-60
MOLT-4 = tested on: MOLT-4
U-251 = tested on: U-251
K562 = tested on: K562
DU-145 = tested on: DU-145
SK-OV-3 = tested on: SK-OV-3
SK-MEL-28 = tested on: SK-MEL-28
SW-620 = tested on: SW-620
NCI-H226 = tested on: NCI-H226
SNB-75 = tested on: SNB-75
SR = tested on: SR
M14 = tested on: M14
RPMI-8226 = tested on: RPMI-8226
PC-3 = tested on: PC-3
UACC-257 = tested on: UACC-257
BT-549 = tested on: BT-549
SK-MEL-5 = tested on: SK-MEL-5
SK-MEL-2 = tested on: SK-MEL-2
OVCAR-5 = tested on: OVCAR-5
MDA-MB-231 = tested on: MDA-MB-231
COLO 205 = tested on: COLO 205
NCI/ADR-RES = tested on: NCI/ADR-RES
MDA-N = tested on: MDA-N
KM12 = tested on: KM12
TK-10 = tested on: TK-10
NCI-H23 = tested on: NCI-H23
HCT-116 = tested on: HCT-116
UACC-62 = tested on: UACC-62
NCI-H460 = tested on: NCI-H460
Hs-578T = tested on: Hs-578T
OVCAR-3 = tested on: OVCAR-3
CAKI-1 = tested on: CAKI-1
SN12C = tested on: SN12C
OVCAR-4 = tested on: OVCAR-4
SF-268 = tested on: SF-268
HCC 2998 = tested on: HCC 2998
HCT-15 = tested on: HCT-15
NCI-H522 = tested on: NCI-H522
UO-31 = tested on: UO-31
ACHN = tested on: ACHN
HOP-62 = tested on: HOP-62
MDA-MB-435 = tested on: MDA-MB-435
A549 = tested on: A549
RXF 393 = tested on: RXF 393
SNB-19 = tested on: SNB-19
CCRF-CEM = tested on: CCRF-CEM
T47D = tested on: T47D
SF-295 = tested on: SF-295
OVCAR-8 = tested on: OVCAR-8
EKVX = tested on: EKVX
HOP-92 = tested on: HOP-92
786-0 = tested on: 786-0
LOX IMVI = tested on: LOX IMVI
MCF7 = tested on: MCF7
IGROV-1 = tested on: IGROV-1
Malme-3M = tested on: Malme-3M
SF-539 = tested on: SF-539
A498 = tested on: A498
HT-29 = tested on: HT-29

Compound: c1ccc(-c2cc3[nH]c4ccccc4[nH]c-3cc(-c3ccccc3)nn2)cc1
- GI50 (HL-60): 20.6 µM (inactive)
- GI50 (MOLT-4): > 100 µM (inactive)
- GI50 (U-251): 55.6 µM (inactive)
- GI50 (K562): > 100 µM (inactive)
- GI50 (DU-145): 52.7 µM (inactive)
- GI50 (SK-OV-3): 17.7 µM (inactive)
- GI50 (SK-MEL-28): > 100 µM (inactive)
- GI50 (SW-620): 81.7 µM (inactive)
- GI50 (NCI-H226): 45.6 µM (inactive)
- GI50 (SNB-75): 30.4 µM (inactive)
- GI50 (SR): 96.2 µM (inactive)
- GI50 (M14): > 100 µM (inactive)
- GI50 (RPMI-8226): 88.1 µM (inactive)
- GI50 (PC-3): 55.1 µM (inactive)
- GI50 (UACC-257): > 100 µM (inactive)
- GI50 (BT-549): > 100 µM (inactive)
- GI50 (SK-MEL-5): 74.6 µM (inactive)
- GI50 (SK-MEL-2): > 100 µM (inactive)
- GI50 (OVCAR-5): > 100 µM (inactive)
- GI50 (MDA-MB-231): 80 µM (inactive)
- GI50 (COLO 205): > 100 µM (inactive)
- GI50 (NCI/ADR-RES): > 100 µM (inactive)
- GI50 (MDA-N): > 100 µM (inactive)
- GI50 (KM12): 46.9 µM (inactive)
- GI50 (TK-10): 22.9 µM (inactive)
- GI50 (NCI-H23): > 100 µM (inactive)
- GI50 (HCT-116): 33.6 µM (inactive)
- GI50 (UACC-62): > 100 µM (inactive)
- GI50 (NCI-H460): 30 µM (inactive)
- GI50 (Hs-578T): 66.4 µM (inactive)
- GI50 (OVCAR-3): 22.7 µM (inactive)
- GI50 (CAKI-1): 91.8 µM (inactive)
- GI50 (SN12C): > 100 µM (inactive)
- GI50 (OVCAR-4): 56.2 µM (inactive)
- GI50 (SF-268): 53 µM (inactive)
- GI50 (HCC 2998): 40 µM (inactive)
- GI50 (HCT-15): 87.7 µM
- GI50 (NCI-H522): 71 µM (inactive)
- GI50 (UO-31): 21.3 µM (inactive)
- GI50 (ACHN): 24.9 µM (inactive)
- GI50 (HOP-62): 26.3 µM (inactive)
- GI50 (MDA-MB-435): 64.3 µM (inactive)
- GI50 (A549): 40.4 µM (inactive)
- GI50 (RXF 393): 76.9 µM (inactive)
- GI50 (SNB-19): 41.6 µM (inactive)
- GI50 (CCRF-CEM): 49.3 µM (inactive)
- GI50 (T47D): > 100 µM (inactive)
- GI50 (SF-295): 24.4 µM (inactive)
- GI50 (OVCAR-8): 54.2 µM (inactive)
- GI50 (EKVX): > 100 µM (inactive)
- GI50 (HOP-92): > 100 µM (inactive)
- GI50 (786-0): 29.2 µM (inactive)
- GI50 (LOX IMVI): 72.3 µM (inactive)
- GI50 (MCF7): 51.3 µM (inactive)
- GI50 (IGROV-1): 32.1 µM (inactive)
- GI50 (Malme-3M): 62.4 µM (inactive)
- GI50 (SF-539): 39.6 µM (inactive)
- GI50 (A498): 22.8 µM (inactive)
- GI50 (HT-29): 50.9 µM (inactive)
